The structures appear in SMILES notation.

This assay deals with D(2) dopamine receptor (Homo sapiens) (UniProt P14416). Conditions: Compound concentration 10 µM.
D(2) dopamine receptor (Homo sapiens), sequence (P14416 whole entry): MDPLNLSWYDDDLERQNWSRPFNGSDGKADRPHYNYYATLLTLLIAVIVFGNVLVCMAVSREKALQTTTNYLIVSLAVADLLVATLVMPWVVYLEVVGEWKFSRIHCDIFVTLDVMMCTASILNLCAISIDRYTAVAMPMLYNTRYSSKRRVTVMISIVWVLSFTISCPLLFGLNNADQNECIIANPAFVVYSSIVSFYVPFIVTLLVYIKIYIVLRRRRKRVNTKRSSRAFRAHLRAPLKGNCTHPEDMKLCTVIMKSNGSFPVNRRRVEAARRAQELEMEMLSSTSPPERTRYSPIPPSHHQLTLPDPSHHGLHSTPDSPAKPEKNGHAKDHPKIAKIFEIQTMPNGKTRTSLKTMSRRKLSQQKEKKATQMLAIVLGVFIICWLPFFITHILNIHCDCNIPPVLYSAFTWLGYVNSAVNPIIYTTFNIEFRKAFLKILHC
Description: PDSP Primary Binding target: DRD2 - Compounds are tested at 10 uM concentration, plate are incubated at room temperature in the dark for 90 minutes. Reaction are stopped by vacuum filtration onto 0.3% polyethyleneimine soaked filter mats using Filtermate harvester. Scintilation cocktail is then melted onto microwave-dried filters on a hot plate and the radio activity is counted in Microbia counter.
What is called inhibition is the drop in the measured response relative to a control, in per cent. On to `CCc1ccc(OCc2ccccc2C(=O)Nc2ccc3nc(C)cc(N)c3c2)cc1`, for which the inhibition is 36.2%.
For `Cc1cccc(NC(=O)N[C@@H]2N=C(c3ccccc3)c3ccccc3N(C)C2=O)c1` the value was 14.2%; for `O=S1(=O)c2cccc3cccc(c23)N1CCCN1CCN(c2ccc(F)cc2)CC1`, 41.2%; for `O=c1ccn([C@@H]2O[C@H](COP(=O)(O)OP(=O)(O)O)[C@@H](O)[C@H]2O)c(=O)[nH]1`, 14.8%.
Turning to `CCCCCCCCCCCCCCCCOC[C@H](COP(=O)([O-])OCC[N+](C)(C)C)OC(C)=O`, the inhibition is 7.75%.
Then `Cc1csc2c(N[C@@H](C)CN3CCN(S(=O)(=O)c4ccc(Cl)c(Cl)c4)CC3)ncnc12`, with 32.8%; and `O=C(O)CC/C=C\C[C@@H]1CO[C@H](c2ccccc2Cl)O[C@@H]1c1ccccc1O`, with 4.25%.
For `CCc1cc2c(c(CC)n1)CCC(=O)N2Cc1ccc(-c2ccccc2-c2nnn[nH]2)cc1` the value was 37.9%; for `CN1C2CCC1CC(OC(c1ccc(F)cc1)c1ccc(F)cc1)C2` (configuration not stated), 67.8%; for `O=C(Nc1ccc(Cl)cc1)Nc1cccc(-c2cccc(N3CCCC3)n2)c1`, 8.25%.
`CC(C)(C)NC[C@H](O)COc1nsnc1N1CCOCC1`: the inhibition is 6.14%.
Regarding `COc1ccc(OC(F)(F)F)cc1CN[C@H]1CCCN[C@H]1c1ccccc1`, the inhibition was 16.6%.
Then `CC(C)NCC(O)COc1ccc(CCOCC2CC2)cc1` (configuration not stated), with 3.26%; and `Cc1c(OCc2cccc(-c3ccc(C(=O)O)cc3)c2)cc2c(c1C)C(=O)C(C1CCCC1)C2` (configuration not stated), with -2.54%.
As for `COC(=O)C1=C(C)NC(C)=C(C(=O)OCCCN2CCC(c3ccccc3)(c3ccccc3)CC2)[C@H]1c1cccc([N+](=O)[O-])c1`, the inhibition was 79.2%.
For `C[C@H](CO)Nc1nc(SCc2cccc(Cl)c2F)nc2[nH]c(=O)sc12` the value was -1.75%.
Then `CNC[C@H](O)c1cccc(O)c1`, with -2.53%; and `CCCCN(CCCC)C(=O)CN1C[C@@H](c2ccc3c(c2)OCO3)[C@H](C(=O)O)[C@H]1c1ccc(OC)cc1`, with 21.1%.
Consider `Cc1cc(NC(=O)Nc2ccc(N(C)C)cc2)c2cc(F)cc(F)c2n1`, for which the inhibition is 52.2%.
Then `Cc1nc(C(=O)N2CCC[C@H]2Cc2nnc(-c3ccccc3)o2)c(-c2ccccc2F)s1`, with 14.6%; and `OC1(c2ccc(Cl)cc2)CCN(Cc2c[nH]c3ccccc23)CC1`, with 90.2%; and `Clc1cccc(COc2cncc(N3CCNCC3)n2)c1`, with 3.43%.
For the compound `CCCCN1CCC(COC(=O)c2cc(Cl)c(N)c3c2OCCO3)CC1`, the inhibition is 43.7%.
For `CCCn1c(=O)c2[nH]c(-c3cnn(Cc4cccc(C(F)(F)F)c4)c3)nc2n(CC)c1=O`, the inhibition is 32.5%.
For `CCc1cc(C(C)=O)c(O)cc1OCCCCCC(C)(C)c1nn[nH]n1` the value was 8.34%; for `c1ccc(N2CCN(Cc3nc4ccccc4[nH]3)CC2)nc1`, 22.3%.
In the case of `Cc1cccc([C@H](C)c2c[nH]cn2)c1C`, the inhibition was 14.4%.
Take `N#Cc1cccc(C(=O)Nc2cc(-c3ccccc3)nn2-c2ccccc2)c1`: the inhibition was -0.08%.
For `CCCCCNC(=N)N/N=C/c1c[nH]c2ccc(OC)cc12` the value was 67.3%; for `COc1cc(-n2cnc3cc(-c4ccc(Cl)cc4)sc3c2=O)ccc1OCCN1CCCC1`, 30.2%; for `CN1C(=O)[C@@H](NC(=O)c2cc3ccccc3[nH]2)N=C(c2ccccc2)c2ccccc21`, 4.63%.
Turning to `CC(C)NCC(O)c1ccc(N)c(C#N)c1` (configuration not stated), the inhibition was 1.95%.
On to `C[C@H](Cc1cc2c(c(C(N)=O)c1)N(CCCO)CC2)NCCOc1ccccc1OCC(F)(F)F`, for which the inhibition was 55.5%.
For `COc1ccc(/C=C/CCCCOc2ccc(C(=O)c3cccc(C(=O)O)c3)cc2CCC(=O)O)cc1` the value was 28.2%; for `NC[C@@H]1O[C@H](C23CC4CC(CC(C4)C2)C3)Cc2c1ccc(O)c2O`, 21.6%.
For `N#Cc1ccc2[nH]cc(CCCCN3CCN(c4ccc5oc(C(N)=O)cc5c4)CC3)c2c1` the value was 79.4%.
Then `CCCCC#Cc1nc(NC)c2ncn([C@@H]3O[C@H](CO)[C@@H](O)[C@H]3O)c2n1`, with -5.45%; and `CCCCc1nc(Cl)c(CO)n1Cc1ccc(-c2ccccc2-c2nnn[nH]2)cc1`, with 23.9%; and `COc1ccc(S(=O)(=O)N2c3ccc(Cl)cc3[C@](O)(c3ccccc3Cl)[C@@H]2C(=O)N2CCC[C@H]2C(N)=O)cc1OC`, with 11.8%.
With `Cc1ccccc1C(=O)Nc1ccc(C(=O)N2CCCC(O)c3cc(Cl)ccc32)c(C)c1` (configuration not stated), the inhibition is 9.21%.
For `COc1ccc(C2(O)OC(=O)C(c3ccc4c(c3)OCO4)=C2Cc2cc(OC)c(OC)c(OC)c2)cc1` (configuration not stated) the value was -2.26%; for `CCCSc1nc(N[C@@H]2C[C@H]2c2ccc(F)c(F)c2)c2nnn([C@@H]3C[C@H](OCCO)[C@@H](O)[C@H]3O)c2n1`, 29%.
For `O=C(c1cc2c(cc1F)OC(c1ccc(F)cc1)(c1ccc(Cl)cc1Cl)O2)N1CCOCC1` (configuration not stated) the value was 5.49%.
For `CC(C)NCC(O)COc1cccc2ccccc12` (configuration not stated) the value was 17.7%; for `Cc1nc(-c2ccc(-c3ccc(C(=O)N4CCc5cc6c(cc54)C4(CCN(C)CC4)CO6)cc3)c(C)c2)no1`, 29%.
For `CN(C)C(=O)C(CCN1CCC(O)(c2ccc(Cl)cc2)CC1)(c1ccccc1)c1ccccc1`, the inhibition is 16.2%.
For `Cc1cc(C(=O)N2Cc3cnn(C)c3Nc3ccccc32)ccc1CNC(=O)N1CCC[C@H]1C(=S)N1CCCN(C)CC1`, the inhibition was 5.64%.
Then `CCN(CC)CCCCC1CCN(CC(=O)N2c3ccccc3C(=O)Nc3cccnc32)CC1`, with 2.83%; and `CCCCCNC(=O)NS(=O)(=O)c1cc([N+](=O)[O-])ccc1NC1CCCCC1`, with 7.7%; and `CSc1ccc(C(=O)N[C@@H]2CCCC[C@@H]2NC(=O)CNC(=O)c2cc(C(F)(F)F)ccc2NC(=O)NC(C)C)cc1`, with 45.7%.
Then `CCCCN(CC)c1nc(C)nc2c1c(C)cn2-c1c(C)cc(C)cc1C`, with 4.03%; and `Cc1nc2sccn2c(=O)c1CCN1CCC(=C(c2ccc(F)cc2)c2ccc(F)cc2)CC1`, with 95.4%.
Turning to `COc1ccccc1CN[C@H]1C2CCN(CC2)[C@H]1C(c1ccccc1)c1ccccc1`, the inhibition is 9.32%.
For `N=C(N)SCCc1c[nH]cn1` the value was -5.28%; for `CN1CC(=O)N=C1NC(=O)Nc1cccc(Cl)c1`, -2.54%; for `COc1cccc([C@@H](C)NCCCc2ccccc2Cl)c1`, 43.9%.
For `C=CCN1C[C@H](C)N([C@H](c2ccc(C(=O)N(CC)CC)cc2)c2cccc(O)c2)C[C@H]1C` the value was -2.85%; for `O=C(Cc1ccc(Cl)c(Cl)c1)N1CCCC[C@H]1CN1CCCC1`, 44.5%.
For the compound `C/C(=N\NC(=O)[C@@H]1C(=O)NC[C@H]1c1ccccc1)c1cccc(Br)c1`, the inhibition was 7.24%.
For the compound `CC(C)C[C@H](NC(=O)N1CCCCCC1)C(=O)N[C@H](Cc1cn(C)c2ccccc12)C(=O)N[C@H](Cc1ccccn1)C(=O)O`, the inhibition was 2.53%.
Consider `C[C@H](NC[C@H](O)CP(=O)(O)CC1CCCCC1)c1ccc(Cl)c(Cl)c1`, for which the inhibition is 10.4%.
Then `CCOC(=O)c1c(C)[nH]c2ccc3c(c12)CN1CCc2cc(OC)ccc2C1O3` (configuration not stated), with 4.19%; and `Oc1ccc2c3c1O[C@H]1c4[nH]c5c(c4C[C@@]4(O)[C@@H](C2)N(CC2CC2)CC[C@]314)C[C@@]1(O)[C@H]2Cc3ccc(O)c4c3[C@@]1(CCN2CC1CC1)[C@H]5O4`, with 1.13%; and `CN(C(=O)Cc1ccc(Cl)c(Cl)c1)C(CN1CCCC1)c1cccc(OCC(=O)O)c1` (configuration not stated), with -3.77%.
Then `COc1ccc(Br)cc1S(=O)(=O)NC(=O)/C=C/c1ccccc1Cc1ccc2ccccc2c1`, with 29.3%; and `C[C@@H](NCCCc1cccc(C(F)(F)F)c1)c1cccc2ccccc12`, with 25.8%.
Then `COc1ccc(NS(=O)(=O)c2sc3ccc(Cl)cc3c2C)cc1N1CCNCC1`, with 37.4%.
For the compound `Nc1nc2c(c(N3CCNCC3)n1)CCC1=C2[C@@H]2CCCC[C@@H]2O1`, the inhibition is 25.9%.
Regarding `C[C@@H](NCCc1ccc(O)cc1)[C@@H](O)c1ccc(O)cc1` (relative stereo), the inhibition is 23.8%.
On to `COc1cc2c(CCNC(C)=O)c[nH]c2cc1Cl`, for which the inhibition was -7.31%.
Turning to `Nc1nc(NCCc2ccc(O)cc2)nc2nc(-c3ccco3)nn12`, the inhibition was 40%.
For `CC(C)(N)C(=O)N[C@H](COCc1ccccc1)C(=O)N1CCC2(CC1)CN(S(C)(=O)=O)c1ccccc12` the value was 22.7%.
For `C[C@@H](N)Cc1c[nH]cn1` the value was -4.88%.
For `O=C(Cc1ccccc1)Nc1nc2ccc(Cl)cc2c2nc(-c3ccco3)nn12` the value was 1.93%; for `COc1cccc([C@H](O)C2CCN(CCc3ccc(F)cc3)CC2)c1OC`, 4.57%.
Take `COc1ccc(S(=O)(=O)c2cc(OC)ccc2S(=O)(=O)c2ccc([C@H](C)NS(C)(=O)=O)cc2)cc1`: the inhibition is 1.18%.
Then `S=C(NCCCc1c[nH]cn1)NCCCN(Cc1ccc(Cl)c(Cl)c1)c1ccc(Br)cn1`, with 17.1%.

For the origin of these results see ChEMBL document CHEMBL5442219.
